Experimental data as given in patent US5594009A, “Fused pyrrolocarbazoles” (priority 1995, dated 1997).
Read-outs that look alike come from different tables or passages of the source.

Columns and labels:
[1] = test system: choline acetyltransferase (ChAT) activity in dissociated rat embryonic spinal cord culture; assay: Spinal Cord ChAT Activity Assay; format: cell-based; conditions: ChAT measured after 48 hours
Method: In these assays, a fused pyrrolocarbazole was directly added to a dissociated spinal cord culture. […] The fused pyrrolocarbazole was added on the same day the dissociated spinal cord cell culture was initiated.
Methods: Fetal rat spinal cord cells were dissociated, and experiments were performed as described (Smith et al., J. Cell Biology., 101:1608-1621 (1985); Glicksman et al., J. Neurochem. 61:210-221 (1993)). Dissociated cells were prepared from spinal cords dissected from rats (embryonic day 14-15) by standard trypsin dissociation techniques (Smith et al., J. Cell Biology 10:1608-1621 (1985)). Cells were plated at 6×10^5 cells/cm^2 on poly-1-ornithine coated plastic tissue culture wells in serum-free N2 medium supplemented with 0.05% bovine serum albumin (BSA) (Bottenstein et al., PNAS USA 514-517 (1979)). Cultures were incubated at 37° C. in a humidified atmosphere of 5% CO2 /95% air for 48 hours. ChAT activity was measured after 2 days it vitro using a modification of the Fonnum procedure (Fonnum, J. Neurochem. 24:407-409 (1975)) according to McManaman et al. and Glicksman et al. (McManaman et al., Developmental Biology 125:311-320 (1988); Glicksman et al., J. Neurochem. 61:210-221 (1993)).

AT-2 cells = assay: Inhibition of Growth of Prostate Cancer Cell Line (MTS assay); format: cell-based; conditions: 72 h, read-out: AT-2 cell growth IC50
Method: AT-2 cells are a prostate cancer cell sub-line derived from the Dunning H tumor, graciously provided to us by Dr. John Isaacs (John Hopkins, M. D.). Unlike the Dunning H tumor cells, AT-2 cells can be grown in vitro.
Methods: At-2 cells ([…]) were plated on tissue culture plastic in 96-well plates in the presence of RPMI-1640 medium containing 10% fetal calf serum, 250 nM dexamethasone, 2 mM glutamine, 1 mM sodium pyruvate, and penicillin/streptomycin antibiotics. The next day, compounds were added at 4 concentrations (10, 1, 0.1, 0.01 μM) to determine the approximate IC50 range. Cultures were assayed 3 days later for cell number using the MTS [(3-(4,5-dimethylthiazol-2-yl)-5-(3-carboxymethoxyphenyl)-2-(4-sulfophenyl)-2H-tetrazolium, inner salt)] assay. The MTS assay (purchased as a kit from Promega) measures the formation of an aqueous soluble formazan (detected by a plate reader at 490nm) produced by the bioreduction of a tetrazolium compound (MTS) in metabolically active cells via mitochondrial succinate dehydrogenase. After determining linearity of the substrate incubation time over a range of cell plating densities, the amount of product measured is directly proportional to cell number. MTS (333 ug/ml) and 25 μM phenazine methosulfate are mixed and added directly to the culture medium, and incubated at 37° C. in the 5% CO2 /95% air incubator for 0.5-4 h. Absorbance of the product at 490 nm is read on the BIO-TEK plate reader. Background values were obtained from wells containing culture medium with substrate solution, but no cells. In addition, values were also obtained from wells containing cells plated at day 0 and assayed on the day compound was added (day 1) in order to determine the number of cells at the time compound was added. After the initial dose-finding experiment was completed, subsequent experiments were set up so that there were 3 or more concentrations near the predicted IC50.

protein kinase C = assay: PKC Activity Inhibition Assay; format: biochemical
Method: Fused pyrrolocarbazoles inhibited the activity of protein kinase C (Table VI). The protein kinase C assay has been disclosed (Murakata et al., U.S. Pat. No. 4,923,986; Kikkawa et al., J. Biol. Chem. 257:13341-13348 (1982)). The assay was performed with several concentrations of fused pyrrolocarbazoles. The concentration at which protein kinase C was 50% inhibited (IC50) was determined.

[2] = test system: NT-3 induced ChAT activity of rat basal forebrain cultures; assay: Enhancement of Neurotrophin (NT-3) Activity Assay, ChAT activity in basal forebrain cultures; format: cell-based
Method: Fused pyrrolocarbazoles were tested for the ability to enhance the activity of the neurotrophin NT-3 in basal forebrain cultures. ChAT activity was assayed as a measure of cholinergic neuron function and survival. The concentration of NT-3 (100 ng/ml) used in these experiments increased ChAT activity over control cultures (untreated with NT-3 or a fused pyrrolocarbazole) by 140%.
Methods. Basal forebrain cultures were prepared from embryonic rats (embryonic day 17) and dissociated with the neutral protease Dispase™. Cells were plated at a density of 4×10^5 cells/cm^2 on poly-1-ornithine coated plastic tissue culture plates in a mixture of DMEM and F12 media (50/50 v/v GIBCO) supplemented with 5% horse serum and 0.5% fetal bovine serum. Cells were incubated at 37° C. in a humidified atmosphere of 5% CO2 /95% air for 5 days. ChAT activity was measured as described in Example III(A)(1).
Recombinant rat NT-3 was produced by using a recombinant baculovirus expression vector under the control of the polyhedron virus promoter (Fraser, In Vitro Cell. and Dev. Biol. 25:225-235 (1989)). The plasmid pXM-NT3 (Hallbook et al., Neuron 6:845-858 (1991), which contained the rat NT-3 cDNA clone, was provided by Dr. Ira Black (University of Medicine and Dentistry of New Jersey, Piscataway, N.J.). NT-3 cDNA was subcloned into the transfer vector pVL1392 (In Vitrogen Corp., San Diego, Calif.) for recombinant virus production. Recombinant baculovirus was produced as described in Meyer et al. (Meyer at al., J. Neurochem 62:825-833 (1994)).

trkA tyrosine kinase = trkA tyrosine kinase (Homo sapiens, UniProt P04629); assay: trkA Tyrosine Kinase Activity Inhibition Assay (ELISA); format: biochemical
Chain of trkA tyrosine kinase (P04629 33-796): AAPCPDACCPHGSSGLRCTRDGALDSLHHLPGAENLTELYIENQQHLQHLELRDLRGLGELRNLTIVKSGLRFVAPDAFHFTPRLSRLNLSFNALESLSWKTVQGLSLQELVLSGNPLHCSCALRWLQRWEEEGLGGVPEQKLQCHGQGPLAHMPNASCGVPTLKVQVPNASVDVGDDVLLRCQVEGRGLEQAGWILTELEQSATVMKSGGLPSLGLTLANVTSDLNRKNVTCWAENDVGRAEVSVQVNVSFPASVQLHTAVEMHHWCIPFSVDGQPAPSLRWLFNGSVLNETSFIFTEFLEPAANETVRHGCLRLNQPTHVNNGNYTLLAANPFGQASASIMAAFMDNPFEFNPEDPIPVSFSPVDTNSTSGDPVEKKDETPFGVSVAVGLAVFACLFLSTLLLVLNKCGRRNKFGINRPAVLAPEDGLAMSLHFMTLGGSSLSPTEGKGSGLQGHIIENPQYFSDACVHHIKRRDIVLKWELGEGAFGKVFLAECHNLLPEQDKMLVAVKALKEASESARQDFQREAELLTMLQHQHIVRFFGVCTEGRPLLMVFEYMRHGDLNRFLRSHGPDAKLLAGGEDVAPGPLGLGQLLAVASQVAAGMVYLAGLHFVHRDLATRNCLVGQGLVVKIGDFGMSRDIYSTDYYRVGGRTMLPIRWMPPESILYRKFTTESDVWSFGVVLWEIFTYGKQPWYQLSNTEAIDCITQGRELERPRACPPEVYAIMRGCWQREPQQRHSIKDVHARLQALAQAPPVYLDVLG
Method: These compounds were then tested for the ability to inhibit substrate phosphorylation by the trkA tyrosine kinase.
Plates were washed three times with TBST, followed by two washes with TBS (TBST sans Tween-20). Fused pyrrolocarbazoles were then added at various concentrations to a reaction mixture (50 mM HEPES, pH 7.4, 5 mM MnCl2, 5 mM MgCl2, 140 mM NaCl, 16 μM ATP, and 15 ng trkA in a total volume of 1001 μL.). As a negative control, 100 mM EDTA was included in the reaction solution. The plates were then incubated at 37° C. for 15 min. The detection antibody, monoclonal anti-phosphotyrosine antibody (UBI), was added at a dilution of 1:2000 in TBST, and incubated for 1 hour at 37° C. Plates were then washed three times with TBST, followed by a 1 hour incubation at 37° C. with alkaline phosphatase-labeled goat anti-mouse IgG (1:2000 in TBST (Bio-Rad)). After washing three times with TBST followed by two washes with TBS, a colored product was produced by using NADPH as substrate for alkaline phosphatase, and the coupled reactions of diaphorase and alcohol dehydrogenase (GIBCO-BRL ELISA amplification system). The colored product was read at 490 nm in a microplate reader (Biotek).

[3] = test system: ChAT activity of basal forebrain cultures; assay: Basal Forebrain ChAT Activity Assay; format: cell-based, rat
Method: Fused pyrrolocarbazoles were tested for the ability to increase ChAT activity of basal forebrain cultures.
Methods: The basal forebrain was dissected from rat embryos (day 17 or 18 embryos) and the cells were dissociated with a neutral protease (Dispase™, Collaborative Research). Neurons were plated at a density of 5×10^4 cells/well (1.5×10^5 cells/cm^2) in poly-1-ornithine and laminin coated plates. Cells were cultured in serum-free N2 medium containing 0.05% BSA at 37° C. in a humidified atmosphere, 5% CO2 /95% air. ChAT activity was assessed 5 days after plating by using the ChAT assay as described in Example III(A)(1).

chick DRG neurons = assay: DRG Neuron Survival Assay (calcein AM); format: cell-based; conditions: 48 hours; for viability at 0.25 µM: 250 nM
Method: Fused pyrrolocarbazoles promoted dorsal root ganglion (DRG) neuronal survival in cultures of chick DRG neurons. Cell survival was measured by uptake of calcein AM, an analog of the viable dye, fluorescein diacetate. Calcein is taken up by viable cells and cleaved intracellularly to fluorescent salts which are retained by intact membranes of viable cells. Microscopic counts of viable neurons correlate directly with relative fluorescence values obtained with the fluorimetric viability assay. This method thus provides a reliable and quantitive measurement of cell survival in the total cell population of a given culture (Bozyczko-Coyne et al., J. Neur. Meth. 50:205-216, 1993).
Methods: Dorsal root ganglia were dissected from embryonic age day 9 chick embryos and dissociated cells prepared by subsequent Dispase (neutral protease, Collaborative Research) dissociation. Neurons were seeded at low density (3×10^4 cells/cm^2) into 96 well poly-L-ornithine and laminin coated plates. Cells were cultured for 48 hours in serum-free N2 medium (Bottenstein and Sato, 1979) at 37° C. in a humidified atmosphere, 5% CO2 /95% air. Cell survival was assessed at 48 hours using the viable fluorimetric assay described above.

[4] = 16 μM ATP, 37° C., 15 min, read-out: INHIBITION OF trkA KINASE IC50
[5] = Gallus gallus, DRG neuron, read-out: Neuronal Survival (% of Control)

| SMILES | IC50 (AT-2 cells; 3 days, MTS) | IC50 (protein kinase C) | Spinal Cord ChAT Activity, % of Control, untreated cultures [1] | further results |
| --- | --- | --- | --- | --- |
| O=C1NC(=O)c2c1c1c3ccccc3[nH]c1c1sc3ccccc3c21 [Compound I-20, 6H, 12-Benzo[b]thieno[2,3-a]pyrrolo[3,4-c]carbazole-5,7(5H,7H)dione] | > 10 µM | 0.15 µM | 130 % of Control |  |
| O=C1NC(=O)c2c1c1c(c3[nH]c4ccccc4c23)CCc2ccccc2-1 [Compound I-14, 12,13-Dihydro-6H, 14H-naphthyl[3,4-a]pyrrolo[3,4-c]carbazole-5,7(5H, 7H)dione] |  | 0.015 µM | 153 % of Control | IC50 (AT-2 cells): 3.07 µM |
| O=C1NCc2c1c1c(c3[nH]c4ccc(C=Cc5ccccc5)cc4c23)Cc2ccccc2-1 [Compound I-24, 3-(2-Phenylethenyl)5H,6H,12H,13H-indeno[2,3-a]pyrrolo[3,4-c]carbazole-7(7H)-one] | > 10 µM | 8 µM | 236 % of Control | viability at 0.1 µM (chick DRG neurons; Gallus gallus, DRG neuron, 100 nM, read-out: Neuronal Survival (% of Control)): 154%; viability at 0.25 µM (chick DRG neurons; [5]): 167%; viability at 0.5 µM (chick DRG neurons; Gallus gallus, DRG neuron, 500 nM, read-out: Neuronal Survival (% of Control)): 163%; IC50 (trkA tyrosine kinase; [4]): > 1 µM; ChAT Activity (% of Control) ([3]; 100 nM): inactive; activity at 0.25 µM ([3]; Rattus norvegicus, 120 h, 250 nM, read-out: ChAT Activity (% of Control)): 151% |
| O=C1NC(=O)c2c1c1c3ccccc3ccc1c1[nH]c3ccccc3c21 [Compound I-15, 6H, 14H-naphthyl[3,4-a]pyrrolo[3,4-c]carbazole-5,7(5H, 7H)-dione] |  | 0.05 µM | 182 % of Control | Neuronal Survival (% of Control) (chick DRG neurons; 100 nM): inactive; Neuronal Survival (% of Control) (chick DRG neurons; 500 nM): inactive; viability at 0.25 µM (chick DRG neurons; [5]): 132%; IC50 (trkA tyrosine kinase): > 1 µM; IC50 (AT-2 cells): 4.3 µM |

Now from value to molecule, other results behind:

| IC50 (AT-2 cells; 3 days, MTS) | IC50 (protein kinase C) | SMILES | Spinal Cord ChAT Activity, % of Control, untreated cultures [1] | further results |
| --- | --- | --- | --- | --- |
| > 10 µM |  | O=C1NC(=O)c2c1c1c3ccccc3[nH]c1c1oc3ccccc3c21 [Compound I-21, 6H, 13H -Benzofuranyl[2,3-a]pyrrolo[3,4-c]carbazole-5,7(5H, 7H)dione] | 122 % of Control |  |
| 1.37 µM | 0.15 µM | O=C1NC(=O)c2c1c1c(c3[nH]c4ccc(F)cc4c23)Cc2ccccc2-1 [Compound I-7] | 164 % of Control | ChAT activity in the absence of NT-3 ([2]; compound added alone to basal forebrain neurons, no NT-3): no effect on ChAT activity; ChAT activity in the presence of NT-3 ([2]; with 100 ng/ml NT-3): enhanced ChAT activity; IC50 (trkA tyrosine kinase; [4]): > 1 µM |
| 0.38 µM | 0.1 µM | O=C1NCc2c3c(c4[nH]c5ccccc5c4c21)Cc1ccccc1-3 [Compound I-3] | 174 % of Control | ChAT Activity (% of Control) ([3]; 100 nM): inactive; ChAT Activity (% of Control) ([3]; 250 nM): inactive; activity at 0.5 µM ([3]; Rattus norvegicus, 120 h, 500 nM, read-out: ChAT Activity (% of Control)): 130% |
